Calls of active or inactive are those of the source. The rule behind the calls is not given here.
Tests used:
[1] = Drug internalization in human HeLa cells at 100 nM incubated for 2 hrs at 4 degC by confocal fluorescence imaging analysis; assay type: ADME, cell-based; settings: 0.1 µM
MCF7 [2] = assay: Induction of apoptosis in human MCF7 cells assessed as decrease in viable cells after 24 hrs by Annexin V-FITC/propidium iodide staining based flow cytometry; assay type: functional, cell-based
MCF7 [3] = assay: Induction of apoptosis in human MCF7 cells assessed as increase in apoptotic cells after 24 hrs by Annexin V-FITC/propidium iodide staining based flow cytometry; assay type: functional, cell-based
Salmon testes DNA [4] = assay: Binding affinity to Salmon sperm DNA assessed as DNA intercalation at 1.5 x 10^-5M by ethidium bromide staining based fluorescence assay; assay type: nucleic-acid assay; settings: Salmonidae
Salmon testes DNA [5] = assay: Binding affinity to Salmon sperm DNA assessed as hypochromic shift at 5 x 10^-5M by absorption spectra analysis; assay type: nucleic-acid assay; settings: Salmonidae
HeLa = assay: Antineoplastic activity against human HeLa cells measured after 36 hrs by MTT assay; assay type: functional, cell-based
HepG2 = assay: Antineoplastic activity against human HepG2 cells measured after 36 hrs by MTT assay; assay type: functional, cell-based; settings: HepG2, 36 h
MCF7 [6] = assay: Antineoplastic activity against human MCF7 cells measured after 36 hrs by MTT assay; assay type: functional, cell-based; settings: MCF7, 36 h
A549 [7] = assay: Antineoplastic activity against human A549 cells measured after 36 hrs by MTT assay; assay type: functional, cell-based; settings: A549, 36 h
HUVEC [8] = assay: Cytotoxicity against HUVEC measured after 36 hrs by MTT assay; assay type: cell-based; settings: Homo sapiens
HUVEC [9] = assay: Cytotoxicity against HUVEC; assay type: cell-based; settings: Homo sapiens
A549 [10] = assay: Induction of apoptosis in human A549 cells assessed as decrease in viable cells after 24 hrs by Annexin V-FITC/propidium iodide staining based flow cytometry; assay type: functional, cell-based
A549 [11] = assay: Induction of apoptosis in human A549 cells assessed as increase in apoptotic cells after 24 hrs by Annexin V-FITC/propidium iodide staining based flow cytometry; assay type: functional, cell-based
A549 [12] = assay: Induction of apoptosis in human A549 cells assessed as early apoptotic cells at 1 ug/ml after 24 hrs by Annexin V-FITC/propidium iodide staining based flow cytometry (reference value: 6.09%); assay type: functional
A549 [13] = assay: Induction of apoptosis in human A549 cells assessed as early apoptotic cells at 2 ug/ml after 24 hrs by Annexin V-FITC/propidium iodide staining based flow cytometry (reference value: 6.09%); assay type: functional
A549 [14] = assay: Induction of apoptosis in human A549 cells assessed as early apoptotic cells at 5 ug/ml after 24 hrs by Annexin V-FITC/propidium iodide staining based flow cytometry (reference value: 6.09%); assay type: functional
MCF7 [15] = assay: Induction of apoptosis in human MCF7 cells assessed as early apoptotic cells at 1 ug/ml after 24 hrs by Annexin V-FITC/propidium iodide staining based flow cytometry (reference value: 2.83%); assay type: functional
MCF7 [16] = assay: Induction of apoptosis in human MCF7 cells assessed as early apoptotic cells at 5 ug/ml after 24 hrs by Annexin V-FITC/propidium iodide staining based flow cytometry (reference value: 2.83%); assay type: functional
MCF7 [17] = assay: Induction of apoptosis in human MCF7 cells assessed as early apoptotic cells at 0.1 ug/ml after 24 hrs by Annexin V-FITC/propidium iodide staining based flow cytometry (reference value: 2.83%); assay type: functional

SMILES	Activity (Salmon testes DNA [5])	IC50 (HeLa) [µM]	IC50 (HepG2) [µM]	IC50 (MCF7 [6]) [µM]	IC50 (A549 [7]) [µM]	IC50 (HUVEC [8]) [µM]	other results
CC(C)c1ccc2c(c1)CC[C@H]1[C@](C)(CN)CCC[C@]21C	–	–	–	–	–	–	Drug uptake [1]: Not Active
CC(C)c1ccc2c(c1)CC[C@H]1[C@](C)(CN)CCC[C@]21C.CC(C)c1ccc2c(c1)CC[C@H]1[C@](C)(CN)CCC[C@]21C.O=C(O)c1nc[nH]c1C(=O)O [listing 1 of 2 here]	Active	–	–	–	–	–	Activity (MCF7 [2]): Dose-dependent effect; Activity (MCF7 [3]): Dose-dependent effect; Activity (Salmon testes DNA [4]): Active
CC(C)c1ccc2c(c1)CC[C@H]1[C@](C)(CNC(=O)c3ncn(C)c3C(=O)NC[C@]3(C)CCC[C@]4(C)c5ccc(C(C)C)cc5CC[C@@H]34)CCC[C@]21C	Active	48.5	50.5	9.85	17	44.9	–
O=c1[nH]cc(F)c(=O)[nH]1 [FLUOROURACIL]	–	–	–	–	–	–	IC50 (HUVEC [9]): 11.7 µM
CC(C)c1ccc2c(c1)CC[C@H]1[C@](C)(CNC(=O)c3ncn(C)c3C(=O)O)CCC[C@]21C	Active	16.8	6.52	12.1	12.3	33	–
CC(C)c1ccc2c(c1)CC[C@H]1[C@](C)(CN)CCC[C@]21C.O=C(O)c1nc[nH]c1C(=O)O [listing 1 of 2 here]	–	–	–	–	–	–	Activity (A549 [10]): Dose-dependent effect; Activity (A549 [11]): Dose-dependent effect
CC(C)c1ccc2c(c1)CC[C@H]1[C@](C)(CN)CCC[C@]21C.O=C(O)c1nc[nH]c1C(=O)O [listing 2 of 2 here]	–	18.7	4.62	6.47	1.85	1.21	Activity (A549 [12]): 12.47%; Activity (A549 [13]): 30.64%; Activity (A549 [14]): 76.86%
COc1cccc2c1C(=O)c1c(O)c3c(c(O)c1C2=O)C[C@@](O)(C(=O)CO)C[C@@H]3O[C@H]1C[C@H](N)[C@H](O)[C@H](C)O1 [DOXORUBICIN]	–	3.55	–	14	3.35	4.4	–
CC(C)c1ccc2c(c1)CC[C@H]1[C@](C)(CN)CCC[C@]21C.CC(C)c1ccc2c(c1)CC[C@H]1[C@](C)(CN)CCC[C@]21C.O=C(O)c1nc[nH]c1C(=O)O [listing 2 of 2 here]	–	2.88	2.91	0.75	4.37	3.98	Activity (MCF7 [15]): 39.49%; Activity (MCF7 [16]): 54.21%; Activity (MCF7 [17]): 25.4%
CC(C)c1ccc2c(c1)CC[C@H]1[C@](C)(CNC(=O)c3cncn3C)CCC[C@]21C	Active	20.9	12	2.17	53.2	57.8	–

Source: ChEMBL document CHEMBL4480368, “Synthesis and potential antineoplastic activity of dehydroabietylamine imidazole derivatives” (Medchemcomm, 2018)
